Measurements from patent US4115385A, “Antibacterial 3-(5-tetrazolyl) penam compounds” (Pfizer Inc., priority 1977, dated 1978).
In brackets after ≈: the same amount, converted by molar mass.

What follows are molecules tested on Streptococcus pyogenes (assay: In vitro minimum inhibitory concentration (MIC) vs. Strep. pyogenes). Settings: Streptococcus pyogenes, read-out: MIC vs. Strep. pyogenes.
Format: cell-based
How it was run: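 Broth inoculated with bacteria and test antibiotic, incubated overnight and read visually; MIC is the lowest concentration preventing turbidity. Test preparations also contain some of the corresponding tetrazole tautomer.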

SMILES	MIC [µg/mL]
CC1(C)S[C@@H]2[C@H](NC(=O)[C@H](NC(=O)CNC(=N)c3ccc([N+](=O)[O-])cc3)c3ccccc3)C(=O)N2[C@H]1c1nnn[nH]1	< 0.1
CC(=O)NCCC(=O)N[C@@H](C(=O)N[C@@H]1C(=O)N2[C@@H]1SC(C)(C)[C@@H]2c1nnn[nH]1)c1ccccc1	< 0.1
CC(=O)NC(=O)N[C@@H](C(=O)N[C@@H]1C(=O)N2[C@@H]1SC(C)(C)[C@@H]2c1nn[nH]n1)c1ccccc1 [2-(3-acetylureido)-2-phenylacetyl]	< 0.1
CC1(C)S[C@@H]2[C@H](NC(=O)C(N)c3ccc(S(N)(=O)=O)cc3)C(=O)N2[C@H]1c1nnn[nH]1 (mixture of isomers) [DL-2-amino-2-(p-sulfamoylphenyl)acetyl]	< 0.1
CC1(C)S[C@@H]2[C@H](NC(=O)[C@H](NC(=O)c3ccc[nH]3)c3ccccc3)C(=O)N2[C@H]1c1nnn[nH]1	< 0.1
CNC(=N)NCC(=O)N[C@@H](C(=O)N[C@@H]1C(=O)N2[C@@H]1SC(C)(C)[C@@H]2c1nn[nH]n1)c1ccccc1	< 0.1
CC1(C)S[C@@H]2[C@H](NC(=O)C(NC(=O)CSC3=NCCN3)c3ccccc3)C(=O)N2[C@H]1c1nn[nH]n1 (stereo partly drawn) [6-(2-[2-(Δ^1 -Imidazolin-2-ylthio)acetamido]-2-phenylacetamido)-2,2-dimethyl-3-(5-tetrazolyl)penam]	< 0.1
CC1(C)S[C@@H]2[C@H](NC(=O)[C@H](NC(=O)Cc3ccco3)c3ccccc3)C(=O)N2[C@H]1c1nnn[nH]1	< 0.1
CC1(C)S[C@@H]2[C@H](NC(=O)[C@H](NC(=O)Cc3cccs3)c3ccccc3)C(=O)N2[C@H]1c1nnn[nH]1	0.1 (≈ 0.201 µM)
CCSCC(=O)N[C@@H](C(=O)N[C@@H]1C(=O)N2[C@@H]1SC(C)(C)[C@@H]2c1nnn[nH]1)c1ccccc1	< 0.1
CC1(C)S[C@@H]2[C@H](NC(=O)C(N)c3cc(O)ccc3Br)C(=O)N2[C@H]1c1nnn[nH]1 (mixture of isomers)	< 0.1
CC1(C)S[C@@H]2[C@H](NC(=O)[C@H](NC(=O)CCNC(=O)c3ccco3)c3ccccc3)C(=O)N2[C@H]1c1nnn[nH]1	< 0.1
CCCC(=O)NCC(=O)N[C@@H](C(=O)N[C@@H]1C(=O)N2[C@@H]1SC(C)(C)[C@@H]2c1nnn[nH]1)c1ccccc1	< 0.1
CC1(C)S[C@@H]2[C@H](NC(=O)[C@H](NC(=O)Nc3ccccc3)c3ccccc3)C(=O)N2[C@H]1c1nnn[nH]1 [D-2-(3-phenylureido)-2-phenylacetyl]	< 0.1
CC1(C)S[C@@H]2[C@H](NC(=O)[C@H](NC(=S)Nc3ccccc3)c3ccccc3)C(=O)N2[C@H]1c1nnn[nH]1 [D-2-(3-phenylthioureido)-2-phenylacetyl, 6-(D-2-[3-Phenylthioureido]-2-phenylacetamide)-2,2-dimethyl-3-(5-tetrazol)penam]	< 0.1
CC1(C)S[C@@H]2[C@H](NC(=O)[C@H](NC(=O)CNC(=N)c3nc4ccccc4s3)c3ccccc3)C(=O)N2[C@H]1c1nnn[nH]1	< 0.1
CCCC(=O)NC(=O)N[C@@H](C(=O)N[C@@H]1C(=O)N2[C@@H]1SC(C)(C)[C@@H]2c1nn[nH]n1)c1ccccc1 [2-(3-butyrylureido)-2-phenylacetyl]	< 0.1
CC1(C)S[C@@H]2[C@H](NC(=O)[C@H](NC(N)=O)c3ccccc3)C(=O)N2[C@H]1c1nn[nH]n1 [D-2-ureido-2-phenylacetyl, 6-(D-2-Ureido-2-phenylacetamido)-2,2-dimethyl-3-(5-tetrazolyl)-penam]	0.1 (≈ 0.24 µM)
CC1(C)S[C@@H]2[C@H](NC(=O)Cc3ccc(OCCN=[N+]=[N-])cc3)C(=O)N2[C@H]1c1nn[nH]n1 [2-(4-[2-azidoethoxy]phenyl)acetyl, 6-(2-[4-(2-Azidoethoxy)phenyl]acetamido)-2,2-dimethyl-3-(5-tetrazolyl)penam]	< 0.1
CC1(C)S[C@@H]2[C@H](NC(=O)[C@H](NC(=O)CNC(=N)c3cccc(C(N)=O)c3)c3ccccc3)C(=O)N2[C@H]1c1nnn[nH]1	< 0.1
CC1(C)S[C@@H]2[C@H](NC(=O)[C@H](NC(=O)Cc3ccc(N)cc3)c3ccccc3)C(=O)N2[C@H]1c1nn[nH]n1 [6-(D-2-[2-(4-Aminophenyl)acetamido]-2-phenylacetamido)-2,2-dimethyl-3-(5-tetrazolyl)penam]	< 0.1
CC1(C)S[C@@H]2[C@H](NC(=O)[C@H](NC(=O)CCN)c3ccccc3)C(=O)N2[C@H]1c1nn[nH]n1 [D-2-(3-aminopropionamido)-2-phenylacetyl, 6-(D-2-[3-Aminopropionamido]-2-phenylacetamido)-2,2-dimethyl-3-(5-tetrazolyl)penam]	< 0.1
CC1(C)S[C@@H]2[C@H](NC(=O)[C@H](NC(=O)CCNC(=N)c3cccs3)c3ccccc3)C(=O)N2[C@H]1c1nnn[nH]1	< 0.1
CC1(C)S[C@@H]2[C@H](NC(=O)CNC(=O)c3ccccc3)C(=O)N2[C@H]1c1nn[nH]n1 [2-(benzamido)acetyl, 6-(2-[Benzamido]acetamido)-2,2-dimethyl-3-(5-tetrazolyl)penam]	0.1 (≈ 0.249 µM)
CC1(C)S[C@@H]2[C@H](NC(=O)[C@H](N)c3cccc(N)c3)C(=O)N2[C@H]1c1nnn[nH]1 [D-2-amino-(3-aminophenyl)acetyl, 6-(D-2-Amino-2-[3-aminophenyl]acetamido)-2,2-dimethyl-3-(5-tetrazolyl)penam]	< 0.1
CC1(C)S[C@@H]2[C@H](NC(=O)[C@H](NC(=O)NC(=O)c3cccnc3)c3ccccc3)C(=O)N2[C@H]1c1nn[nH]n1	0.1 (≈ 0.192 µM)
CC1(C)S[C@@H]2[C@H](NC(=O)[C@H](NC(=O)CCl)c3ccccc3)C(=O)N2[C@H]1c1nn[nH]n1 [D-2-(2-chloroacetamido)-2-phenylacetyl, 6-(D-2-[2-Chloroacetamido]-2-phenylacetamido)-2,2-dimethyl-3-(5-tetrazolyl)penam]	< 0.1
CC1(C)S[C@@H]2[C@H](NC(=O)[C@H](NC(=O)CNC(=N)c3ccncc3)c3ccc(O)cc3)C(=O)N2[C@H]1c1nnn[nH]1 [6-(D-2-[2-(4-Pyridinecarboxamidino)acetamido]-2-(p-hydroxyphenyl]acetamido)-2,2-dimethyl-3-(5-tetrazolyl)penam]	< 0.1

Same assay, conditions: Streptococcus pyogenes; Table II; two-fold serial dilution, Brain-Heart Infusion broth, overnight; read-out: MIC vs. Strep. pyogenes

MIC [µg/mL]	SMILES
0.039 (≈ 0.1 µM)	CC1(C)S[C@@H]2[C@H](NC(=O)C(N)c3ccc(N)cc3)C(=O)N2[C@H]1c1nnn[nH]1 (stereo partly drawn) [2-amino-2-(4-aminophenyl)acetyl]
0.004 (≈ 0.00674 µM)	CC1(C)S[C@@H]2[C@H](NC(=O)[C@H](NC(=O)CNC(=N)c3cc(Cl)cc(C#N)c3)c3ccccc3)C(=O)N2[C@H]1c1nnn[nH]1
6.25 (≈ 11.2 µM)	CC1(C)S[C@@H]2[C@H](NC(=O)[C@H](NC(=O)CNC(=N)c3cccc(C#N)c3)c3ccccc3)C(=O)N2[C@H]1c1nnn[nH]1
0.2 (≈ 0.389 µM)	CC1(C)S[C@@H]2[C@H](NC(=O)[C@H](NC(=O)CSc3ncc[nH]3)c3ccccc3)C(=O)N2[C@H]1c1nn[nH]n1
3.12 (≈ 6.52 µM)	CC1(C)S[C@@H]2[C@H](NC(=O)[C@H](NC(=O)c3ccncc3)c3ccccc3)C(=O)N2[C@H]1c1nnn[nH]1
1.56 (≈ 2.69 µM)	CC1(C)S[C@@H]2[C@H](NC(=O)[C@H](NC(=O)CCNC(=S)Nc3ccccc3)c3ccccc3)C(=O)N2[C@H]1c1nnn[nH]1
0.004	CC1(C)S[C@@H]2[C@H](NC(=O)C(N)c3cccc([N+](=O)[O-])c3)C(=O)N2[C@H]1c1nnn[nH]1 (mixture of isomers) [DL-2-amino-2-(m-nitrophenyl)acetyl]
0.2 (≈ 0.355 µM)	CC1(C)S[C@@H]2[C@H](NC(=O)[C@H](NS(=O)(=O)c3ccc4ccccc4c3)c3ccccc3)C(=O)N2[C@H]1c1nn[nH]n1
0.2 (≈ 0.351 µM)	CC1(C)S[C@@H]2[C@H](NC(=O)[C@H](NC(=O)Cc3ccc(Br)cc3)c3ccccc3)C(=O)N2[C@H]1c1nnn[nH]1
< 0.1	CC1(C)S[C@@H]2[C@H](NC(=O)[C@@H](N)c3ccc(O)cc3)C(=O)N2[C@H]1c1nnn[nH]1 [L-2-amino-2-(p-hydroxyphenyl)acetyl]
0.004 (≈ 0.00578 µM)	CC1(C)S[C@@H]2[C@H](NC(=O)[C@H](NC(=O)CNC(=N)c3cc(Br)cc(S(N)(=O)=O)c3)c3ccccc3)C(=O)N2[C@H]1c1nnn[nH]1
1.56 (≈ 3.57 µM)	Cc1ccc(S(=O)(=O)NC(=O)N[C@@H]2C(=O)N3[C@@H]2SC(C)(C)[C@@H]3c2nn[nH]n2)cc1 [N-(p-toluenesulfonyl)carbomoyl]
6.25 (≈ 14 µM)	CCOC(=O)N[C@@H](C(=O)N[C@@H]1C(=O)N2[C@@H]1SC(C)(C)[C@@H]2c1nnn[nH]1)c1ccccc1 [D-2-(ethoxycarbonylamino)-2-phenylacetyl]
0.004 (≈ 0.00733 µM)	CCN=C(NCC)SCC(=O)N[C@@H](C(=O)N[C@@H]1C(=O)N2[C@@H]1SC(C)(C)[C@@H]2c1nn[nH]n1)c1ccccc1
3.12 (≈ 5.7 µM)	CC1(C)S[C@@H]2[C@H](NC(=O)[C@H](NC(=O)CCNC(=N)c3ccccc3)c3ccccc3)C(=O)N2[C@H]1c1nnn[nH]1
0.004 (≈ 0.00679 µM)	CCN=C(NCC)SCC(=O)NC(=O)N[C@@H](C(=O)N[C@@H]1C(=O)N2[C@@H]1SC(C)(C)[C@@H]2c1nn[nH]n1)c1ccccc1 [6-(D-2-[3-(2-(N,N'-diethylguanylthio]acetyl)ureido]-2-phenylacetamido)-2,2-dimethyl-3-(5-tetrazolyl)penam]
0.39 (≈ 1 µM)	CC1(C)S[C@@H]2[C@H](NC(=O)[C@H](N)c3ccc(N)cc3)C(=O)N2[C@H]1c1nnn[nH]1 [D-2-amino-(4-aminophenyl)acetyl, 6-(D-2-Amino-2-[4-aminophenyl]acetamido)-2,2-dimethyl-3-(5-tetrazolyl)penam]
3.12 (≈ 7.97 µM)	CC1(C)S[C@@H]2[C@H](NC(=O)[C@H](N)c3ccc(F)cc3)C(=O)N2[C@H]1c1nnn[nH]1 [D-2-amino-2-(p-fluorophenyl)acetyl, 6-(D-2-amino-2-[p-fluorophenyl]acetamido)-2,2-dimethyl-3-(5-tetrazolyl)penam]
0.2 (≈ 0.494 µM)	COc1cccc(OC)c1C(=O)N[C@@H]1C(=O)N2[C@@H]1SC(C)(C)[C@@H]2c1nnn[nH]1 [2,6-dimethoxybenzoyl, 6-(2,6-dimethoxybenzamido)-2,2-dimethyl-3-(5-tetrazolyl)penam]

Same assay, conditions: Streptococcus pyogenes; Table IV; read-out: MIC vs. Strep. pyogenes

MIC [µg/mL]	SMILES
6.25 (≈ 15.6 µM)	CC1(C)S[C@@H]2[C@H](N3CN[C@H](c4ccc(O)cc4)C3=O)C(=O)N2[C@H]1c1nnn[nH]1 [6-(5-Oxo-4-[p-hydroxyphenyl]-1-imidazolidinyl)-2,2-dimethyl-3-(5-tetrazolyl)penam]
